Results taken from US7968128B2, “Plant extract compositions for affecting sleep” (VIVA Pharmaceutical Inc., priority 2008, dated 2011).

Key:
Assay type in all cases: in vivo, Swiss mice
mice [1] = test: Traction test
Description: (§1) Male and female Swiss mice having weights between about 18 to 22 g were used in the Examples provided below. Mice were housed in groups of 10 mice in a breeding room having a controlled temperature of about 22±2° C. Each group had free access to standard diet pellets and tap water.
Each of the extract combinations “BS” and “BY” produced in Example 1, was prepared for oral administration (PO) by ultrasonically dispersing each extract in distilled water containing about 0.5% Tween-80. Diazepam was also prepared for administration by ultrasonically dispersing the Diazepam in distilled water containing about 0.5% Tween-80. […]
The effects of the BS and BY compositions on inhibition of muscle coordination systems were evaluated using a traction test.
A wire having a diameter of about 1.6 mm and length of about 30 cm was stretched and secured horizontally at a height of about 30 cm above a surface. […] The duration of time each mouse clung to the wire was recorded up to a maximum of 60 seconds.
The test was performed about 60 minutes after the administration of one of the BS, BY, Diazepam, and the control compositions. […] The durations of clinging time measured for each group of mice were calculated using the mean value of triplicates for each mouse. If the duration of clinging time was greater than 60 seconds, the mouse was released from the wire, and the clinging time was recorded 60 seconds.

mice [2] = test: Inclined plane test
Description: as §1
(§2) Each of the extract combinations “BS” and “BY” produced in Example 1, was prepared for oral administration (PO) by ultrasonically dispersing each extract in distilled water containing about 0.5% Tween-80. Diazepam was also prepared for administration by ultrasonically dispersing the Diazepam in distilled water containing about 0.5% Tween-80.
Each of the BY, BS, and Diazepam compositions was administered orally to separate groups of mice at a dosage of 10 mL/kg body weight. […]
Effects of the BS and BY compositions on the motor functions of mice were evaluated using an inclined plane test.
The inclined plane consisted of two rectangular steel boards connected at one end by a hinge. […] The maximum inclination of the plane at which a mouse could maintain itself in position for at least 5 seconds was recorded, and interpreted to represent the mouse's functional ability. The test was performed in triplicate for each mouse and the mean value was recorded as the maximum inclination.

mice [3] = test: Sodium barbital induced sleep time measurement
Description: as §1, §2
(§3) Each of the BY, BS, and Diazepam compositions was administered orally to separate groups of mice at a dosage of 10 mL/kg body weight.
(§4) Dosages of the BS, BY, Diazepam compositions, and the sterile distilled water were administered orally to groups of mice, wherein each group comprised at least 10 mice.
Mice were administered 90 mg/kg sodium barbital via intraperitoneal injection (ip). Mice were then positioned on their back. The time that elapsed between administration of the sodium barbital and when each animal lost their righting reflex represented the time period between latency to the onset of sleep. The BS, BY, Diazepam, and the control treatments were administered to separate groups of mice. Each group of mice received their treatment about 7 days prior to the administration of the sodium barbital. The duration of sleeping time was calculated as the time interval between the loss of righting reflex to the time of recovery of this reflex. In studying the effects of the BS and BY extracts, the comparison of the durations of sleeping time between mice receiving the BS, BY, Diazepam treatments and the control treatments, was used as the main criterion of measurement.

mice [4] = test: Locomotor activity measurements (square arena); conditions: for Locomotor activity count: dose 1 mg/kg oral, mean ± SE, n = 10
Description: as §1, §2, §3, §4
The effects of the BS treatments and the BY treatments on inhibition of central nervous system were evaluated by measurements of the locomotor activities of mice.
Each mouse was placed in the center of a square arena having dimensions of approximately 60 cm×60 cm×35 cm. […] The arena was illuminated using red 25 W bulbs on the ceiling. The total number of squares each mouse entered in a 5 minute period was recorded by an overhead video camera. The camera was linked to a monitor and video recorder in an adjacent laboratory.
The locomotor activity of the mice were recorded both before and 30-minutes, 60-minutes, 120-minutes, and 180-minutes after administration of one of BS, BY, Diazepam, and the control.
All locomotor activity recordings were carried out with the observer unaware of the treatment that was administered to each of the mice.

[5] = dose 1.0 mg/kg oral, sodium barbital 90 mg/kg ip, mean ± SE, n = 10

Structure (SMILES): CN1C(=O)CN=C(c2ccccc2)c2cc(Cl)ccc21 [Diazepam]
- Duration of clinging (mice [1]; dose 9 mg/kg oral, about 60 minutes after administration, maximum 60 seconds, mean ± SE, n = 10): 19.6 ± 4.9 s
- durations of clinging time compared to control (in words) (mice [1]; doses of Table 3): markedly reduced
- Maximum inclination (mice [2]; dose 9 mg/kg oral, position held at least 5 seconds, mean ± SE, n = 10): 51.5 ± 0.9 degrees
- degrees of inclination compared to control (in words) (mice [2]; doses of Table 4): markedly reduced
- sodium barbital-induced sleeping time compared to the controls (in words) (mice [3]; dosage 1.0 mg/kg): significantly prolonged
- Duration of Sleep (mice [3]; [5]): 72.8 ± 7.5 min
- Sleep latency (mice [3]; [5]): 169.1 ± 12.4 s
- effects on the locomotor activity of the mice (in words) (mice [4]; all doses and times of Table 2): None of the BS, BY and Diazepam compositions had any significant effects
- Locomotor activity count (mice [4]; 0 minutes (before administration), squares entered in 5 min): 80.4 ± 6.7
- Locomotor activity count (mice [4]; 30 minutes after administration): 68.9 ± 4.9
- Locomotor activity count (mice [4]; 60 minutes after administration): 56.7 ± 3.8
- Locomotor activity count (mice [4]; 120 minutes after administration): 52.6 ± 3.6
- Locomotor activity count (mice [4]; 180 minutes after administration): 47.6 ± 3.4
